Test results: patent US8153674B2, “Organic compounds” (Novartis AG, priority 2006, dated 2012)

Assays:
[1] = biological target: T1, aldosterone synthase (CYP11B2) (Homo sapiens, UniProt P19099); assay: In vitro aldosterone synthase inhibition: cellular aldosterone production in Ang II-stimulated NCI-H295R cells; assay type: cell-based; conditions: 1 μM Ang II, 24 hr
T1 construct: host or cells: NCI-H295R
T1 sequence (P19099 25-503): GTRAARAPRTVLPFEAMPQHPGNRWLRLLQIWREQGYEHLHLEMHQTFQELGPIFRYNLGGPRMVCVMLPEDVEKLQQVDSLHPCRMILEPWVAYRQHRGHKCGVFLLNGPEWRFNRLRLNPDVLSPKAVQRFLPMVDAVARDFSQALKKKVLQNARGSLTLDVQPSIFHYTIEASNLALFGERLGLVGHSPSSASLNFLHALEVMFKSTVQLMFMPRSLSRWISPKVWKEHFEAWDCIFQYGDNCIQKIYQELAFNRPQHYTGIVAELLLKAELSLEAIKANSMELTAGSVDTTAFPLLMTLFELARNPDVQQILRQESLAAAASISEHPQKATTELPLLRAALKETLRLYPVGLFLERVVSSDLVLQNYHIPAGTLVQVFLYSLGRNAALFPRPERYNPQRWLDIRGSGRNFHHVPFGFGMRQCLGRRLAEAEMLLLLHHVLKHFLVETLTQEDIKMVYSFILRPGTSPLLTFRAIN
Excerpt: In particular, the aldosterone synthase inhibitory activities in vitro can be determined by the following assay.
Human adrenocortical carcinoma NCI-H295R cell line is obtained from American Type Culture Collection (Manassas, Va.). Insulin/transferrin/selenium (ITS)-A supplement (100×), DMEM/F-12, antibiotic/antimycotic (100×), and fetal calf serum (FCS) are purchased from Gibco (Grand Island, N.Y.). Anti-mouse PVT scintillation proximity assay (SPA) beads and NBS 96-well plates are obtained from Amersham (Piscataway, N.J.) and Corning (Acton, Mass.), respectively. Solid black 96-well flat bottom plates are purchased from Costar (Corning, N.Y.). Aldosterone and angiotensin (Ang II) are purchased from Sigma (St. Louis, Mo.). D-[1,2,6,7-^3H(N)]aldosterone is acquired from PerkinElmer (Boston, Mass.). Nu-serum is a product of BD Biosciences (Franklin Lakes, N.J.).
For in vitro measurement of aldosterone activity, human adrenocortical carcinoma NCI-H295R cells are seeded in NBS 96-well plates at a density of 25,000 cells/well in 100 μl of a growth medium containing DMEM/F12 supplemented with 10% FCS, 2.5% Nu-serum, 1 μg ITS/ml, and 1× antibiotic/antimycotic. The medium is changed after culturing for 3 days at 37° C. under an atmosphere of 5% CO2/95% air. On the following day, cells are rinsed with 100 μl of DMEM/F12 and incubated with 100 μl of treatment medium containing 1 μM Ang II and a compound at different concentrations in quadruplicate wells at 37° C. for 24 hr. At the end of incubation, 50 μl of medium is withdrawn from each well for measurement of aldosterone production by an RIA using mouse anti-aldosterone monoclonal antibodies.
Measurement of aldosterone activity can also be performed using a 96-well plate format. Each test sample is incubated with 0.02 μCi of D-[1,2,6,7-^3H(N)]aldosterone and 0.3 μg of anti-aldosterone antibody in phosphate-buffered saline (PBS) containing 0.1% Triton X-100, 0.1% bovine serum albumin, and 12% glycerol in a total volume of 200 μl at room temperature for 1 hr. Anti-mouse PVT SPA beads (50 μl) are then added to each well and incubated overnight at room temperature prior to counting in a Microbeta plate counter. The amount of aldosterone in each sample is calculated by comparing with a standard curve generated using known quantities of the hormone.

CYP11B1 = biological target: T2, CYP11B1 (Homo sapiens, UniProt P15538); assay: In vitro CYP11B1 inhibition in NCI-H295R cells (steroid release, radioimmunoassay); assay type: cell-based; conditions: I %: percentage of inhibition; for inhibition at 0.1 µM: NCI-H295R, 100 nM
T2 construct: Thus, the NCI-H295R cells have Cyp11 B1 (steroid 11 p-hydroxylase); host or cells: NCI-H295R
T2 sequence (P15538 25-503): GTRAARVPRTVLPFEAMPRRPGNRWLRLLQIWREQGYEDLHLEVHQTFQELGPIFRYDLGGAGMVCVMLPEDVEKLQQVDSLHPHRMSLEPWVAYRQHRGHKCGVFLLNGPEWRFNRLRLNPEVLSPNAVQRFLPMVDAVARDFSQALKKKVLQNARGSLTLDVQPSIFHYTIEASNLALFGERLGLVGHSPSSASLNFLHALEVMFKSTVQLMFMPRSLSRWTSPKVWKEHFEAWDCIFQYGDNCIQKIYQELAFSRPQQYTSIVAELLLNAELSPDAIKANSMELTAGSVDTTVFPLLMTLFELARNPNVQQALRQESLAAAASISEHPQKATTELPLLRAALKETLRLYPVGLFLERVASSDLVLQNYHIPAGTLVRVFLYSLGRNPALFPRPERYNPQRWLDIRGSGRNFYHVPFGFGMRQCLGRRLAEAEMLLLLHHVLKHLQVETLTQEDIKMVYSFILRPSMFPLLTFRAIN
Excerpt: The in vitro inhibitory activities for CYP11B1 can be determined by the following assay.
The cell line NCI-H295R was originally isolated from an adrenocortical carcinoma and has been characterized in the literature through the stimulable secretion of steroid hormones and the presence of the enzymes essential for steroidogenesis. Thus, the NCI-H295R cells have Cyp11 B1 (steroid 11 p-hydroxylase). The cells show the physiological property of zonally undifferentiated human foetal adrenocortical cells which, however, have the capacity to produce the steroid hormones which are formed in the three, phenotypically distinguishable zones in the adult adrenal cortex. The NCI-H295R cells (American Type Culture Collection, ATCC, Rockville, Md., USA) are grown in Dulbeoco's Modified Eagle'Ham F-12 Medium (DME/F12), which has been I supplemented with Ulroser SF Serum(Soprachem, Cergy-Saint-Christophe, France), insulin, transferrin, selenite (1-T-S, Becton Dickinson Biosiences, Franklin lakes, NJ, USA) and antibiotics in 75 cm^2 cell culture vessels at 37° C. and in a 95% air-5% carbon dioxide atmosphere. The cells are subsequently transferred for colony formation into a 24-well incubation vessel. They are cultivated there in DME/F12 medium, which is now supplemented with 0.1% bovine serum instead of Ultroser SF for 24 hours. The experiment is initiated by cultivating the cells in DME/F12 medium which is supplemented with 0.1% bovine serum albumin and test compound, in the presence or absence of cell stimulants, for 72 hours. The test substance is added in a concentration range from 0.2 nanomolar to […]. Cell stimulants which can be used are angiotensin 11 ([…] or 100 nanomolar), potassium ions (16 millimolar), forskolin (10 micromolar) or a combination of two stimulants.
The excretion of aldosterone, cortisol, corticosterone and estradiol/estrone into the culture medium can be detected and quantified by commercially available, specific monoclonal antibodies in radioimmunoassays in accordance with the manufacturers instructions.
Inhibition of the release of certain steroids can be used as a measure of the respective enzyme inhibition by the added test compounds. The dose-dependent inhibition of enzymic activity by a compound is calculated by means of an inhibition plot which is characterized by an IC50.
The IC50 values for active test compounds are ascertained by a simple linear regression analysis in order to construct inhibition plots without data weighting. The inhibition plot is calculated by fitting a 4-parameter logistic function to the raw data points using the least squares method. The equation of the 4-parameter logistic function is calculated as follows: Y=(d−a)/((1+(x/c)b))+a I where: a=minimum data level b=gradient I c=ICED, d=maximum data level x=inhibitor concentration.

Row | Compound | IC50 [1] | inhibition at 0.1 µM (CYP11B1) | melting point | CYP11B1 % I (100 nM) (CYP11B1)
1 | 3-(3,3-dimethyl-1-oxo-isochroman-4-yl)-3H-imidazole-4-carbaldehyde oxime (trans) [Entry 5] | 0.047 µM | – | – | 97%
2 | Cc1noc(-c2cncn2C2c3ccccc3C(=O)OC2(C)C)n1 (racemic) [Entry 4, 3,3-dimethyl-4-[5-(3-methyl-[1,2,4]oxadiazol-5-yl)imidazol-1-yl]-isochroman-1-one] | 0.187 µM | 100% | – | –
3 | COC(=O)c1cncn1C1c2ccccc2C(=O)N(C)C1(C)C (racemic) [Entry 11, 3-(2,3,3-trimethyl-1-oxo-1,2,3,4-tetrahydro-isoquinolin-4-yl)-3H-imidazole-4-carboxylic acid methyl ester] | 0.073 µM | 95% | – | –
4 | COC(=O)c1cncn1C1c2ccccc2C(=O)N(C2CC2)C1(C)C (racemic) [Entry 12, 3-(2-cyclopropyl-3,3-dimethyl-1-oxo-1,2,3,4-tetrahydro-isoquinolin-4-yl)-3H-imidazole-4-carboxylic acid methyl ester] | 0.53 µM | 77% | – | –
5 | COC(=O)c1cncn1C1c2ccccc2C(=O)OC1(C)C (single isomer, unassigned) [Entry 1, 3-(3,3-dimethyl-1-oxo-isochroman-4-yl)-3H-imidazole-4-carboxylic acid methyl ester] | 0.024 µM | 100% | – | –
6 | CCOC(=O)c1cncn1C1c2ccccc2C(=O)OC1(C)C (single isomer, unassigned) [Entry 2, 3-(3,3-dimethyl-1-oxo-isochroman-4-yl)-3H-imidazole-4-carboxylic acid ethyl ester] | 0.003 µM | 94% | – | –
7 | CC1(C)OC(=O)c2ccccc2C1n1cncc1C(=O)Oc1ccccc1 (single isomer, unassigned) [Entry 3, 3-(3,3-dimethyl-1-oxo-isochroman-4-yl)-3H-imidazole-4-carboxylic acid phenyl ester] | 0.003 µM | 97% | – | –

Continued, in another order:

Row | IC50 [1] | inhibition at 0.1 µM (CYP11B1) | melting point | Compound | CYP11B1 % I (100 nM) (CYP11B1)
8 | 0.006 µM | 100% | – | CCCCc1cncn1C1c2ccccc2C(=O)OC1(C)C (racemic) [Entry 6, 4-(5-butyl-imidazol-1-yl)-3,3-dimethyl-isochroman-1-one] | –
9 | 0.314 µM | 90% | – | CCc1cncn1C1c2ccccc2C(=O)OC12CCOCC2 (racemic) [Entry 10, [4-(5-ethyl-imidazol-1-yl)-isochroman-1-one]-3-spiro(4-tetrahydropyran)] | –
10 | 0.022 µM | 100% | – | C=Cc1cncn1C1c2ccccc2C(=O)OC1(C)C (single isomer, unassigned) [Entry 7, 4-(5-vinyl-imidazol-1-yl)-3,3-dimethyl-isochroman-1-one] | –
11 | 0.017 µM | 100% | – | CCOCc1cncn1C1c2ccccc2C(=O)OC1(C)C (single isomer, unassigned) [Entry 8, 4-(5-ethoxymethyl-imidazol-1-yl)-3,3-dimethyl-isochroman-1-one] | –
12 | 0.007 µM | 100% | – | CCc1cncn1C1c2ccccc2C(=O)OC12CCC2 (single isomer, unassigned) [Entry 9, [4-(5-ethyl-imidazol-1-yl)-isochroman-1-one]-3-spirocyclobutane] | –
13 | – | – | 178 to 179 °C | CCc1cncn1C1c2ccccc2C(=O)OC12CCC2 (stereo not shown) [Example 1(f), [4-(5-ethyl-imidazol-1-yl)-isochroman-1-one]-3-spirocyclobutane] | –
